{"source": "patent US20110028566A1", "about": "“COMPOSITIONS AND PRODUCTS CONTAINING CYCLOALIPHATIC DIOL ANTIMICROBIAL AGENTS AND METHODS OF USING THE COMPOSITIONS AND PRODUCTS” (EASTMAN CHEMICAL COMPANY, priority 2009, published 2011)", "type_in_all_cases": "cell-based", "key": {"[1]": {"tested_on": "Corynebacterium xerosis ATCC #373", "assay": "Synergy testing in brain heart infusion media, 96-well plates", "conditions": "for % EHG / SI: CHDM with EHG; for % EHG: relative to EHG alone; for QB/b (EHG): inhibitory concentration of EHG alone or in combination with CHDM, plate EX194-195-EHG-Syn1; for SI: synergy index", "protocol": "MICs were determined using a high-throughput microplate method. Individual antimicrobial agents were added to TSB (pH 7.3) for bacterial testing or SDB (pH 5.6) for fungal testing at the highest concentration to be tested. A serial dilution series was prepared at a dilution ratio of 1:1.3333 such that a one log range was covered in nine dilutions. Two-hundred microliters of the diluted antimicrobial agents were dispensed into four wells each of a sterile, 96-well, flat-bottom microplate (Nalge Nunc International). Four additional wells of the highest concentration were dispensed to serve as uninoculated high-level controls. Eight additional wells containing only broth medium were also prepared, four to serve as negative controls and four as positive controls. Three wells of each antimicrobial agent dilution were inoculated with one of the test strains in Table 7. The final well of each antimicrobial agent dilution was left uninoculated to serve as a control (and means of compensating) for any absorbance/turbidity due to the test compounds.\nThe individual antimicrobial agents listed in Table 8 were tested in combination with CHDM. The MIC values determined in the individual antimicrobial agent testing described above were used to establish a target MIC. In each experiment, MIC values for the individual antimicrobial agents and CHDM were determined in order to eliminate any variability due to comparison of data from different dates. Testing was done over a range of four concentrations separated by a factor of 1.3333 as described above. The four concentrations were the target MIC plus one dilution level higher and two dilution levels lower than the target. Combinations of antimicrobial agents and CHDM were made at 50% of the target MIC values and the higher and lower individual levels. Additionally, 50% level series were also tested with the antimicrobial agent or CHDM at one dilution level lower than the target level. The method of Kull et. al. (F. C. Kull et al., Applied Microbiology, 9, p 538-541 (1961)) was used to determine whether there was synergistic activity between CHDM and each antimicrobial agent for inhibition of each of the five microbes. MICs for the individually-tested CHDM and antimicrobial agent, as well as the concentration of CHDM and antimicrobial agent in the combination MIC were used to calculate a synergy index (SI) according to the equation: […]\nwhere Qa and Qb are the minimum inhibitory concentrations for CHDM and a antimicrobial agent, respectively, when tested independently, and QA and QB are the concentrations of CHDM and a antimicrobial agent, respectively, in combination at an inhibitory concentration. Accordingly, synergy is defined as a SI less than one.\nExperiments were also conducted using Corynebacterium xerosis, which is a bacterium known to cause body odor. […] The Corynebacterium xerosis bacterium used in this example was ATCC #373. The seed culture was grown in brain heart infusion medium. Assays were performed in brain heart infusion media in 96-well plates as described in Example 2. The brain heart infusion medium was at a pH of about 7.4. All growth was conducted at 37° C."}, "[2]": {"tested_on": "C. albicans", "assay": "MIC comparison of 1,1- and 1,4-CHDM, 96-well plates", "conditions": "for MIC Day 1: 24 H; for MIC Day 2: 48 H; for MIC Day 3: 72 H", "protocol": "(§1) The antimicrobial activities of 1,4-cyclohexanedimethanol (1,4-CHDM) and 1,1-cyclohexanedimethanol (1,1-CHDM) have been determined. […] MICs were individually calculated for three consecutive days with both 1,1-cyclohexanedimethanol and the 31% cis:69% trans mixture of 1,4-cyclohexanedimethanol. Both compounds were evaluated against a panel of five strains of microorganisms.\n(§2) Strains P. aeruginosa, C. albicans, E. coli, A. niger and S. aureus were purchased from the American Type Culture Collection (Manassas, Va.). NUNC flat bottom polystyrene 96 well microtiter plates (NUNC Cat# 269787), and 17×100 mm culture tubes (VWR Cat# 60818-703) were purchased from VWR International, LLC (West Chester, Pa.). Eastman CHDM-D90 and 1,1-CHDM (>99.7% by GC and verified by NMR) were provided by Eastman Chemical Company (Kingsport, Tenn.). All bacterial cultures were grown in BD BBL trypticase soy broth, and all fungal cultures were grown in sabourand dextrose broth purchased from VWR International, LLC (West Chester, Pa.). Absorbance measurements were taken with a TECAN GENios Pro microplate reader.\n(§3) A small loopful of inoculum was transferred from a freshly streaked agar plate of each strain to 5 ml of sterile media in a 17×100 mm culture tube. The bacteria were incubated for 20-28 hours and C. albicans for 44-52 hours.\n(§4) Stock solutions were prepared for each isomer in the corresponding growth media at a concentration of 5% w/v (1,4-CHDM) or 2.25% w/v (1,1-CHDM). Serial dilutions were prepared with a dilution ratio of 1:1.3333 such that one log range was covered with nine dilutions.\n(§5) Two-hundred microliters of each CHDM concentration was transferred into 4 wells of a sterile 96-well plate. Four extra wells of the highest concentration were filled for the uninoculated high-level controls. Eight additional wells were filled with only sterile broth to serve as negative and positive controls. The last well of each CHDM isomer dilution was left uninoculated to serve as controls for background turbidity associated with test compounds. Plates with bacteria or C. albicans were inoculated with 2 μl of seed culture for final concentration of roughly 10^6 CFU/ml for the bacteria and 10^5 CFU/ml for the C. albicans. Plates with A. niger were inoculated with 2 μl of spore suspension prepared above.\n(§6) Each plate was covered and incubated at the appropriate temperature and turbidity as a measure of cell density was determined via absorbance measurement at 612 nm using a microplate reader. Measurements were taken at 24, 48 and 72 hours for each plate. The raw data was exported into an Excel spreadsheet and the MIC values were determined and expressed as wt %. The absorbance of each inoculated CHDM well was retrieved by first subtracting out the average reading for each uninoculated well, then by comparison to a positive threshold to determine positive or negative status for growth. The positive threshold was calculated by multiplication of the average absorbance for the inoculated media-only wells by 0.05. The MIC was determined as the lowest test concentration resulting in all three replicate wells displaying values below the positive threshold."}, "[3]": {"tested_on": "S. aureus", "assay": "MIC comparison of 1,1- and 1,4-CHDM, 96-well plates", "conditions": "for MIC Day 1: 24 H; for MIC Day 2: 48 H; for MIC Day 3: 72 H", "protocol": "as §1, §2, §3, §4, §5, §6"}, "[4]": {"tested_on": "E. coli", "assay": "MIC comparison of 1,1- and 1,4-CHDM, 96-well plates", "conditions": "for MIC Day 1: 24 H; for MIC Day 2: 48 H; for MIC Day 3: 72 H", "protocol": "as §1, §2, §3, §4, §5, §6"}, "[5]": {"tested_on": "P. aeruginosa", "assay": "MIC comparison of 1,1- and 1,4-CHDM, 96-well plates", "conditions": "for MIC Day 1: 24 H; for MIC Day 2: 48 H; for MIC Day 3: 72 H", "protocol": "as §1, §2, §3, §4, §5, §6"}, "[6]": {"tested_on": "A. niger", "assay": "MIC comparison of 1,1- and 1,4-CHDM, 96-well plates", "conditions": "for MIC Day 1: 24 H; for MIC Day 2: 48 H; for MIC Day 3: 72 H", "protocol": "as §1, §2\nA. niger was cultured on sabourand dextrose agar plates until a heavy concentration of black spores were visibly apparent. Spores were harvested from the plate by suspension in 3 ml of sabourand dextrose broth utilizing a sterile plastic spreader and sterile transfer pipette.\nas §4, §5, §6"}}}
{"molecule": "CCCCC(CC)COCC(O)CO", "note": "(stereo not drawn) [EHG, ethylhexyl glycerin, reference compound]", "values": [{"measurement": "% EHG", "setting": "[1]; Day 2", "result": 100.0, "unit": "%"}, {"measurement": "QB/b (EHG)", "setting": "[1]; Day 2", "result": 0.107}, {"measurement": "SI", "setting": "[1]; Day 2", "result": 1.00}, {"measurement": "% EHG", "setting": "[1]; Day 3", "result": 100.0, "unit": "%"}, {"measurement": "QB/b (EHG)", "setting": "[1]; Day 3", "result": 0.080}, {"measurement": "SI", "setting": "[1]; Day 3", "result": 1.00}]}
{"molecule": "OCC1(CO)CCCCC1", "note": "[1,1 CHDM]", "values": [{"measurement": "MIC Day 1", "setting": "[2]", "result": 2.25, "unit": "wt %"}, {"measurement": "MIC Day 2", "setting": "[2]", "result": 2.25, "unit": "wt %"}, {"measurement": "MIC Day 3", "setting": "[2]", "result": 2.25, "unit": "wt %"}, {"measurement": "MIC Day 1", "setting": "[3]", "result": 2.25, "unit": "wt %"}, {"measurement": "MIC Day 2", "setting": "[3]", "result": 2.25, "unit": "wt %"}, {"measurement": "MIC Day 3", "setting": "[3]", "result": 2.25, "unit": "wt %"}, {"measurement": "MIC Day 1", "setting": "[4]", "result": 1.26, "unit": "wt %"}, {"measurement": "MIC Day 2", "setting": "[4]", "result": 1.26, "unit": "wt %"}, {"measurement": "MIC Day 3", "setting": "[4]", "result": 1.26, "unit": "wt %"}, {"measurement": "MIC Day 1", "setting": "[5]", "result": 1.26, "unit": "wt %"}, {"measurement": "MIC Day 2", "setting": "[5]", "result": 1.26, "unit": "wt %"}, {"measurement": "MIC Day 3", "setting": "[5]", "result": 1.26, "unit": "wt %"}, {"measurement": "MIC Day 1", "setting": "[6]", "result": ">2.25", "unit": "wt %"}, {"measurement": "MIC Day 2", "setting": "[6]", "result": ">2.25", "unit": "wt %"}, {"measurement": "MIC Day 3", "setting": "[6]", "result": ">2.25", "unit": "wt %"}]}
{"molecule": "OCC1CCC(CO)CC1", "note": "(stereo not drawn) [1,4 CHDM]", "values": [{"measurement": "MIC Day 1", "setting": "[2]", "result": 3.75, "unit": "wt %"}, {"measurement": "MIC Day 2", "setting": "[2]", "result": 4.99, "unit": "wt %"}, {"measurement": "MIC Day 3", "setting": "[2]", "result": ">5.0", "unit": "wt %"}, {"measurement": "MIC Day 1", "setting": "[3]", "result": 3.75, "unit": "wt %"}, {"measurement": "MIC Day 2", "setting": "[3]", "result": 3.75, "unit": "wt %"}, {"measurement": "MIC Day 3", "setting": "[3]", "result": 3.75, "unit": "wt %"}, {"measurement": "MIC Day 1", "setting": "[4]", "result": 1.58, "unit": "wt %"}, {"measurement": "MIC Day 2", "setting": "[4]", "result": 1.58, "unit": "wt %"}, {"measurement": "MIC Day 3", "setting": "[4]", "result": 1.58, "unit": "wt %"}, {"measurement": "MIC Day 1", "setting": "[5]", "result": 1.58, "unit": "wt %"}, {"measurement": "MIC Day 2", "setting": "[5]", "result": 1.58, "unit": "wt %"}, {"measurement": "MIC Day 3", "setting": "[5]", "result": 2.11, "unit": "wt %"}, {"measurement": "MIC Day 1", "setting": "[6]", "result": ">5.0", "unit": "wt %"}, {"measurement": "MIC Day 2", "setting": "[6]", "result": 3.75, "unit": "wt %"}, {"measurement": "MIC Day 3", "setting": "[6]", "result": 3.75, "unit": "wt %"}]}
